Five compounds from ChEMBL document CHEMBL1201862, “PubChem BioAssay data set” (2004) can be followed below.

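1) Cells in 96-well plates. 2) Compound, 48 h, 5 concentrations. 3) Linear interpolation between surrounding doses. 4) Unreached endpoint = highest concentration. GI50 = concentration required for 50% inhibition of growth.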 Calls of active or inactive are those of the source. Rule as the data show it: active = GI50 up to about 1.1 µM and inactive = higher.

Test systems include OVCAR-5; 786-0; NCI-H460; MOLT-4; UACC-257; SK-MEL-5; CCRF-CEM; SNB-75; SNB-19; NCI-H226; MDA-N; SW-620; IGROV-1; M14; K562; MDA-MB-231; LOX IMVI; SR; HCT-116; RXF 393.
Holding throughout (assay): DTP human tumour cell line panel, 48 h

Broadly, the GI50 is the concentration at which growth is held to half of that of the control. `CCCCOCn1c(=O)[nH]c(=O)c2ccccc21`: the GI50 in the test with OVCAR-5 was > 100 µM (inactive); with 786-0, > 100 µM (inactive); in the test with NCI-H460, 88.1 µM (inactive); with MOLT-4, > 100 µM (inactive); with UACC-257, 78.7 µM (inactive); with SK-MEL-5 it was 54.1 µM (inactive). Moreover, the GI50 is > 100 µM (inactive) in the test on CCRF-CEM; 13.3 µM (inactive) in the test on SNB-75; 14.9 µM (inactive) in the test on SNB-19; 49.5 µM (inactive) with NCI-H226; > 100 µM (inactive) in the test with MDA-N; > 100 µM (inactive) in the test on SW-620. Moreover, the GI50 was 49 µM (inactive) in the test with IGROV-1; > 100 µM (inactive) in the test on M14; > 100 µM (inactive) with K562; 33.3 µM (inactive) in the test with MDA-MB-231; > 100 µM (inactive) in the test with LOX IMVI; > 100 µM (inactive) in the test with SR. The results for the GI50 in the test with HCT-116 and in the test with RXF 393 were > 100 µM (inactive) and 48.2 µM (inactive), respectively.
`CN(CCO)CC(=O)CC(O)(C(F)(F)F)C(F)(F)F`: the GI50 was 52.5 µM (inactive) with OVCAR-5; 32.6 µM (inactive) with 786-0; 27.5 µM (inactive) with NCI-H460; 52.6 µM (inactive) with MOLT-4; 37.6 µM (inactive) with UACC-257; 16.3 µM (inactive) in the test on SK-MEL-5. Besides, the GI50 with CCRF-CEM was 32.1 µM (inactive); with SNB-75, 14.5 µM (inactive); in the test with SNB-19 it was 41.4 µM (inactive); in the test on NCI-H226, 36.3 µM (inactive); with MDA-N, 32.1 µM (inactive); in the test with SW-620 it was 34.9 µM (inactive). For the same compound, the GI50 is 43.2 µM (inactive) in the test on IGROV-1; 32.5 µM (inactive) in the test on M14; 42.4 µM (inactive) in the test with K562; 29.7 µM (inactive) in the test on MDA-MB-231; 31.4 µM (inactive) with LOX IMVI; 40.8 µM (inactive) in the test with SR. Moreover, the GI50 with HCT-116 was 30.8 µM (inactive); in the test on RXF 393, 19.5 µM (inactive).
Turning to `O=C(CN1CCN(C(=O)OCc2ccccc2)CCN(CC(=O)N2CCCCC2)CCN(C(=O)OCc2ccccc2)CC1)N1CCCCC1`, the GI50 in the test on OVCAR-5 was 19.6 µM (inactive); in the test on 786-0, 13.8 µM (inactive); in the test with NCI-H460, 12.4 µM (inactive); in the test on MOLT-4 it was 7.41 µM (inactive); in the test with UACC-257 it was 3.49 µM (inactive); in the test with SK-MEL-5, 6.87 µM (inactive). Further, the GI50 with CCRF-CEM was 6.44 µM (inactive); in the test with SNB-75, 4.22 µM (inactive); in the test on SNB-19, 19.7 µM (inactive); in the test on NCI-H226, 5.82 µM (inactive); in the test on MDA-N, 14.8 µM (inactive); with SW-620, 19.6 µM (inactive). Also, the GI50 in the test with IGROV-1 is 10.3 µM (inactive); in the test on M14, 10.1 µM (inactive); in the test with K562, 5.4 µM (inactive); in the test with MDA-MB-231, 14.2 µM (inactive); with LOX IMVI, 14.5 µM (inactive); with SR, 3.3 µM (inactive). Besides, the results for the GI50 in the test with HCT-116 and in the test with RXF 393 were 4.88 µM (inactive) and 11.9 µM (inactive), respectively.
With `COc1cc(C2S/C(=C/c3ccccc3)C(=O)N2c2cc(Cl)c(Cl)cc2Cl)cc(OC)c1OC` (stereo not given), the GI50 was 41.4 µM (inactive) with OVCAR-5; 38.3 µM (inactive) with 786-0; 31.5 µM (inactive) in the test on NCI-H460; 25.2 µM (inactive) in the test with MOLT-4; 54.5 µM (inactive) in the test with UACC-257; 22.5 µM (inactive) in the test on SK-MEL-5. Besides, the GI50 with CCRF-CEM is 21.5 µM (inactive); in the test with SNB-75, 2.56 µM (inactive); in the test with SNB-19, > 63.1 µM (inactive); with NCI-H226, 20.6 µM (inactive); in the test on MDA-N it was 50.5 µM (inactive); in the test on SW-620 it was 47.6 µM (inactive). Further, the GI50 with IGROV-1 was 23.9 µM (inactive); in the test on M14, 37.5 µM (inactive); in the test with K562, 29 µM (inactive); in the test on MDA-MB-231 it was > 66.8 µM (inactive); with LOX IMVI, 24.2 µM (inactive); in the test with SR it was 25.3 µM (inactive). Besides, the GI50 in the test with HCT-116 is 23.5 µM (inactive); in the test on RXF 393, > 100 µM (inactive).
With `C=C1C(=O)O[C@@H]2C(=O)[C@@H](C)[C@@H]3C=CC(=O)[C@@]3(C)[C@@H](OC(=O)/C(C)=C\C)[C@H]12` [MULTISTATIN], the GI50 in the test with OVCAR-5 was 2.22 µM (inactive); in the test on 786-0, 0.31 µM (active); in the test with NCI-H460, 2.21 µM (inactive); with MOLT-4, 0.41 µM (active); with UACC-257, 1.47 µM (inactive); in the test on SK-MEL-5, 1.68 µM (inactive). Moreover, the GI50 is 0.168 µM (active) in the test on CCRF-CEM; 5.53 µM (inactive) in the test on SNB-75; 12.9 µM (inactive) in the test with SNB-19; 2.38 µM (inactive) with NCI-H226; 0.675 µM (active) in the test with MDA-N; 0.361 µM (active) in the test on SW-620. The GI50 in the test with IGROV-1 is 1.48 µM (inactive); in the test with M14, 1.56 µM (inactive); with K562, 0.293 µM (active); in the test on MDA-MB-231 it was 1.88 µM (inactive); in the test on LOX IMVI, 0.555 µM (active); in the test on SR it was 0.223 µM (active). The GI50 with HCT-116 was 0.238 µM (active); in the test with RXF 393 it was 0.378 µM (active).
